pIC50: −log10 of the molar value. Starred links: 1 amine or outer side, 2 acyl side, 3 side chain; linkers in the order of their positions; H or OH if unused. Positions of bridges follow the written chain, without caps; N, C: chain ends. Non-standard residues stand in square brackets, D forms with d. Residues, ends and D or L forms follow the SMILES beside them. Groups on a side chain read outwards from the residue. *: point of attachment. Phe(3-CH2NH2) = O=C([C@H](Cc1cccc(CN[*:3])c1)N[*:1])[*:2]; Trp(5-F) = N[C@@H](Cc1c[nH]c2ccc(F)cc12)C(=O)O; Phe(4-CH2NH2) = NCc1ccc(C[C@H](N)C(=O)O)cc1; Pro(cis-4-F) = O=C(O)[C@@H]1C[C@H](F)CN1; γGlu = O=C(O)[C@H](CCC(=O)[*:2])N[*:1]; Propanoyl(3,3,3-F3) = O=C(CC(F)(F)F)*; mXylylene = c1cc(C[*:1])cc(C[*:2])c1; AEF = NCCOc1ccc(C[C@H](N)C(=O)O)cc1; Adipoyl = O=C(CCCCC(=O)[*:2])[*:1]; Glutaryl = O=C(CCCC(=O)[*:2])[*:1]; Palmitoyl = CCCCCCCCCCCCCCCC(=O)*; PEG4 = NCCOCCOCCOCCOCCC(=O)O; αMeP = C[C@@]1(C(=O)O)CCCN1; 3Amb = NCc1cccc(C(=O)O)c1; X51 = COCCOCCOCCOCCC(=O)*; Orn = NCCC[C@H](N)C(=O)O; Aun = NCCCCCCCCCCC(=O)O; AEEA = NCCOCCOCC(=O)O; X2 = O=C(C[*:2])[*:1]; Glycolyl = O=C(CO)*; Mpa = O=C(O)CCS
Legend:
PCSK9 [1] = target: T1, PCSK9 (Homo sapiens (Human), UniProt Q8NBP7); test: PCSK9 Alexa FRET Standard assay (displacement of AlexaFluor647 tagged cyclic peptide Reagent A); format: binding; conditions: 0.5 nM PCSK9, 20 nM AF cyclic peptide Reagent A
T1 sequence (Q8NBP7 153-692): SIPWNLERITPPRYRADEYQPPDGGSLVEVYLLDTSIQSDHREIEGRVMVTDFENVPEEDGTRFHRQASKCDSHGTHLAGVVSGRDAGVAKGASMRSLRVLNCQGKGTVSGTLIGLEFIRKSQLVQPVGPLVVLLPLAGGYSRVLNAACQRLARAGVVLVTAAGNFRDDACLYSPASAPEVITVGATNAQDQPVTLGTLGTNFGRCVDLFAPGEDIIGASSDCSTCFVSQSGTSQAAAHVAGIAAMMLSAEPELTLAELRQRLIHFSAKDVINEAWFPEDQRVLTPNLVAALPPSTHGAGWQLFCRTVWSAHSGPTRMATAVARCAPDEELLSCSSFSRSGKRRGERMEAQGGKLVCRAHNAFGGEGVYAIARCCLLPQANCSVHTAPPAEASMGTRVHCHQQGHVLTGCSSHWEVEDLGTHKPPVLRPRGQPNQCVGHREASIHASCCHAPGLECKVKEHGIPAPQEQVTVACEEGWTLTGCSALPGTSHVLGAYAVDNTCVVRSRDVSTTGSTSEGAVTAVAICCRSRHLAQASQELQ
How it was run: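 TR-FRET displacement: 0.5 nM biotinylated PCSK9 with 1.25 nM Strep-Eu and 20 nM AlexaFluor-tagged cyclic peptide (final) in 50 mM HEPES pH 7.4, 0.15 M NaCl, 5 mM CaCl2, 0.01% BSA, 0.01% P20, ≥2 h at room temperature. IC50 from sigmoidal fit, converted to Ki via peptide KD; falling Eu counts flagged false positives.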

PCSK9 [2] = target: T1, PCSK9; test: PCSK9 Alexa FRET Plus assay (displacement of AlexaFluor647 tagged cyclic peptide Reagent B); format: binding; conditions: 0.5 nM PCSK9, 960 nM AF cyclic peptide Reagent B
How it was run: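 TR-FRET displacement with final 0.5 nM biotinylated PCSK9, 1.25 nM Strep-Eu and 960 nM AlexaFluor-tagged cyclic peptide in HEPES pH 7.4, NaCl, CaCl2, BSA, P20; ≥2 h at room temperature. IC50 from sigmoidal fit, converted to Ki using peptide KD. Falling europium counts flagged false positives.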

[3] = PCSK9 Alexa FRET Standard assay, read-out: IC50
[4] = Alexa FRET Plus, read-out: IC50

SMILES | pIC50 (PCSK9 [1]; [3]) | pIC50 (PCSK9 [2]; [4]) | pIC50 (PCSK9 [1]; IC50, PCSK9 Alexa FRET Standard assay) | pIC50 (PCSK9 [2]; IC50, Alexa FRET Plus)
COc1ccc(C[C@@H]2NC(=O)[C@H]([C@@H](C)O)NC(=O)[C@@H]3C[C@H](F)CN3C(=O)[C@H](Cc3c[nH]c4ccc(F)cc34)NC(=O)[C@H](Cc3c[nH]c4ccc(F)cc34)NC(=O)[C@@H](C)NC(=O)[C@H](CCCCN)NC(=O)[C@@H](NC(C)=O)CCCNC(=O)COc3ccc(cc3)C[C@@H](C(N)=O)NC(=O)[C@]3(C)CCCN3C2=O)cc1 [Compound 091] (Ac-[Orn]K[dA][Trp(5-F)][Trp(5-F)][Pro(cis-4-F)]TY(Me)[αMeP]Y-NH2; linker 1-10 via X2) | 7.00 to 9.96 | 6.30 to 7.00 | – | –
COc1ccc(C[C@@H]2NC(=O)[C@H](Cc3cnc[nH]3)NC(=O)[C@H](CC(=O)O)NC(=O)[C@H](Cc3c[nH]c4ccc(F)cc34)NC(=O)[C@H](Cc3c[nH]c4ccc(F)cc34)NC(=O)[C@@H](C)NC(=O)CCCCC(=O)NCc3ccc(cc3)C[C@@H](C(N)=O)NC(=O)[C@]3(C)CCCN3C2=O)cc1 [Compound 419] ([dA][Trp(5-F)][Trp(5-F)]DHY(Me)[αMeP][Phe(4-CH2NH2)]-NH2; linker N-8 via Adipoyl) | 6.00 to 7.00 | 5.30 to 6.30 | – | –
COc1ccc(C[C@@H]2NC(=O)[C@H](Cc3cnc[nH]3)NC(=O)[C@H](CC(=O)O)NC(=O)[C@H](Cc3c[nH]c4ccc(F)cc34)NC(=O)[C@H](Cc3c[nH]c4ccc(F)cc34)NC(=O)[C@@H](C)NC(=O)CCCC(=O)NCc3ccc(cc3)C[C@@H](C(N)=O)NC(=O)[C@]3(C)CCCN3C2=O)cc1 [Compound 417] ([dA][Trp(5-F)][Trp(5-F)]DHY(Me)[αMeP][Phe(4-CH2NH2)]-NH2; linker N-8 via Glutaryl) | 7.00 to 9.96 | 6.30 to 7.00 | – | –
COc1ccc(C[C@@H]2NC(=O)[C@H]([C@@H](C)O)NC(=O)[C@@H]3C[C@H](F)CN3C(=O)[C@H](Cc3c[nH]c4ccc(F)cc34)NC(=O)[C@H](Cc3c[nH]c4ccc(F)cc34)NC(=O)[C@@H](C)NC(=O)[C@H](CCCCN)NC(=O)[C@@H](NC(=O)CO)CC(=O)NCCOc3ccc(cc3)C[C@@H](C(N)=O)NC(=O)[C@]3(C)CCCN3C2=O)cc1 [Compound 116] (Glycolyl-DK[dA][Trp(5-F)][Trp(5-F)][Pro(cis-4-F)]TY(Me)[αMeP][AEF]-NH2; lactam 1-10) | 4.30 to 4.68 | 5.30 to 6.30 | – | –
C[C@H]1NC(=O)[C@H](CCCCN)NC(=O)CCSCc2cccc(c2)CSC[C@@H](C(N)=O)NC(=O)[C@]2(C)CCCN2C(=O)[C@H](Cc2ccc(O)cc2)NC(=O)c2cccc(c2)CNC(=O)[C@H](Cc2c[nH]c3ccc(F)cc23)NC(=O)[C@H](Cc2c[nH]c3ccc(F)cc23)NC1=O [Compound 089] ([Mpa]K[dA][Trp(5-F)][Trp(5-F)][3Amb]Y[αMeP]C-NH2; linker 1-9 via mXylylene) | 7.00 to 9.96 | 7.00 to 10.00 | – | –
NC(=O)[C@@H]1Cc2cccc(c2)CNC(=O)CCCCC(=O)NCC(=O)N[C@@H](Cc2c[nH]c3ccc(F)cc23)C(=O)N[C@@H](Cc2c[nH]c3ccc(F)cc23)C(=O)N[C@@H](CC(=O)O)C(=O)N[C@@H](Cc2cnc[nH]2)C(=O)N[C@@H](Cc2ccc(O)cc2)C(=O)N1 [Compound 457] (G[Trp(5-F)][Trp(5-F)]DHY[Phe(3-CH2NH2)]-NH2; linker N-7 via Adipoyl) | 4.30 to 4.68 | 5.30 to 6.30 | – | –
C[C@@]12CCCN1C(=O)[C@H](Cc1ccc(O)cc1)NC(=O)CN1C(=O)[C@@H](N=C(c3ccccc3)c3ccccc31)NC(=O)[C@H](Cc1c[nH]c3ccc(F)cc13)NC(=O)[C@H](Cc1c[nH]c3ccc(F)cc13)NC(=O)CNC(=O)[C@H](CCCCN)NC(=O)CCSCc1cccc(c1)CSC[C@@H](C(N)=O)NC2=O [Compound 122] | – | – | 7.00 to 9.96 | 7.00 to 10.00
COc1ccc(C[C@@H]2NC(=O)[C@H]([C@@H](C)O)NC(=O)[C@@H]3CC[C@H](F)N3C(=O)[C@H](Cc3c[nH]c4ccc(F)cc34)NC(=O)[C@H](Cc3c[nH]c4ccc(F)cc34)NC(=O)[C@@H](C)NC(=O)c3ccc(cc3)-c3ccc(cc3)CNCc3ccc(cc3)C[C@@H](C(N)=O)NC(=O)[C@]3(C)CCCN3C2=O)cc1 [Compound 093] | 4.92 to 6.00 | 5.30 to 6.30 | – | –
COc1ccc(C[C@@H]2NC(=O)[C@H]([C@@H](C)O)NC(=O)[C@@H]3C[C@H](F)CN3C(=O)[C@H](Cc3c[nH]c4ccc(F)cc34)NC(=O)[C@H](Cc3c[nH]c4ccc(F)cc34)NC(=O)[C@@H](C)NC(=O)[C@H](CCCCN)NC(=O)[C@@H](NC(=O)CC(F)(F)F)CC(=O)NCCOc3ccc(cc3)C[C@@H](C(N)=O)NC(=O)[C@]3(C)CCCN3C2=O)cc1 [Compound 114] ({Propanoyl(3,3,3-F3)}-DK[dA][Trp(5-F)][Trp(5-F)][Pro(cis-4-F)]TY(Me)[αMeP][AEF]-NH2; lactam 1-10) | 4.30 to 4.68 | 5.30 to 6.30 | – | –
C[C@@]12CCCN1C(=O)[C@H](Cc1ccc(O)cc1)NC(=O)CN1C(=O)[C@@H](CCc3ccccc31)NC(=O)[C@H](Cc1c[nH]c3ccc(F)cc13)NC(=O)[C@H](Cc1c[nH]c3ccc(F)cc13)NC(=O)CNC(=O)[C@H](CCCCN)NC(=O)CCSCc1cccc(c1)CSC[C@@H](C(N)=O)NC2=O [Compound 109] | 7.00 to 9.96 | 6.30 to 7.00 | – | –
C[C@@]12CCCN1C(=O)[C@H](Cc1ccc(O)cc1)NC(=O)CN1C(=O)[C@@H](N=C(C3CCCCC3)c3ccccc31)NC(=O)[C@H](Cc1c[nH]c3ccc(F)cc13)NC(=O)[C@H](Cc1c[nH]c3ccc(F)cc13)NC(=O)CNC(=O)[C@H](CCCCN)NC(=O)CCSCc1cccc(c1)CSC[C@@H](C(N)=O)NC2=O [Compound 129] | 7.00 to 9.96 | 5.30 to 6.30 | – | –

Now from value to molecule, other results behind:

pIC50 (PCSK9 [1]; [3]) | pIC50 (PCSK9 [2]; [4]) | SMILES | pIC50 (PCSK9 [1]; IC50, PCSK9 Alexa FRET Standard assay) | pIC50 (PCSK9 [2]; IC50, Alexa FRET Plus)
7.00 to 9.96 | 5.30 to 6.30 | CCCCCCCCCCCCCCCC(=O)N[C@@H](CCC(=O)NCCOCCOCC(=O)NCCOCCOCC(=O)NCCCC[C@H](NC(=O)CCCCCCCCCCNC(=O)[C@@H]1CSCc2cccc(c2)CSCCC(=O)N[C@@H](CCCCN)C(=O)N[C@H](C)C(=O)N[C@@H](Cc2c[nH]c3ccc(F)cc23)C(=O)N[C@@H](Cc2c[nH]c3ccc(F)cc23)C(=O)N[C@@H](CC(=O)O)C(=O)N[C@@H](Cc2cnc[nH]2)C(=O)N[C@@H](Cc2ccc(O)cc2)C(=O)N2CCC[C@@]2(C)C(=O)N1)C(N)=O)C(=O)O [Compound 479] ([Mpa]K[dA][Trp(5-F)][Trp(5-F)]DHY[αMeP]C[Aun]K([AEEA-AEEA-γGlu-Palmitoyl])-NH2; linker 1-10 via mXylylene) | – | –
7.00 to 9.96 | 7.00 to 10.00 | C[C@@]12CCCN1C(=O)[C@H](Cc1ccc(O)cc1)NC(=O)[C@H](Cc1cnc[nH]1)NC(=O)[C@H](CC(=O)O)NC(=O)[C@H](Cc1c[nH]c3ccc(F)cc13)NC(=O)[C@H](Cc1c[nH]c3ccc(F)cc13)NC(=O)CNC(=O)[C@H](CCCCNC(=O)CCOCCOCCOCCOCCN)NC(=O)CCSCc1cccc(c1)CSC[C@@H](C(N)=O)NC2=O [Compound 485] ([Mpa]K(PEG4)G[Trp(5-F)][Trp(5-F)]DHY[αMeP]C-NH2; linker 1-10 via mXylylene) | – | –
7.00 to 9.96 | 6.30 to 7.00 | C[C@@]12CCCN1C(=O)[C@H](Cc1ccc(O)cc1)NC(=O)N[C@@H]1CCCc3ccc(cc31)C(=O)[C@H](Cc1c[nH]c3ccc(F)cc13)NC(=O)[C@H](Cc1c[nH]c3ccc(F)cc13)NC(=O)CNC(=O)[C@H](CCCCN)NC(=O)CCSCc1cccc(c1)CSC[C@@H](C(N)=O)NC2=O [Compound 140] | – | –
7.00 to 9.96 | 7.00 to 10.00 | CCCCCCCCCCCCCCCC(=O)N[C@@H](CCC(=O)NCCOCCOCC(=O)NCCOCCOCC(=O)NCCCC[C@H](NC(C)=O)C(=O)NCCOCCOCCOCCOCCOCCOCCOCCOCCOCCOCCOCCOCCC(=O)N[C@@H]1CSCc2cccc(c2)CSC[C@@H](C(N)=O)NC(=O)[C@]2(C)CCCN2C(=O)[C@H](Cc2ccc(O)cc2)NC(=O)[C@H]([C@@H](C)O)NC(=O)N2C[C@@H](F)C[C@H]2C(=O)[C@H](Cc2c[nH]c3ccc(F)cc23)NC(=O)[C@H](Cc2c[nH]c3ccc(F)cc23)NC(=O)[C@@H](C)NC(=O)[C@H](C)NC1=O)C(=O)O [Compound 136] | – | –
7.00 to 9.96 | 6.30 to 7.00 | CCCCCCCCCCCCCCCC(=O)N[C@@H](CCC(=O)NCCOCCOCC(=O)NCCOCCOCC(=O)NCc1cccc(C[C@@H]2NC(=O)[C@@H](C)NC(=O)[C@H](CCCCN)NC(=O)CCSCc3cccc(c3)CSC[C@@H](C(N)=O)NC(=O)[C@]3(C)CCCN3C(=O)[C@H](Cc3ccc(O)cc3)NC(=O)[C@H](Cc3cnc[nH]3)NC(=O)[C@H](CC(=O)O)NC(=O)[C@H](Cc3c[nH]c4ccc(F)cc34)NC2=O)c1)C(=O)O [Compound 476] ([Mpa]K[dA][Phe(3-CH2NH2)]([AEEA-AEEA-γGlu-Palmitoyl])[Trp(5-F)]DHY[αMeP]C-NH2; linker 1-10 via mXylylene) | – | –
6.00 to 7.00 | 5.30 to 6.30 | COc1ccc(C[C@@H]2NC(=O)[C@H]([C@@H](C)O)NC(=O)[C@@H]3C[C@H](F)CN3C(=O)[C@H](Cc3c[nH]c4ccc(F)cc34)NC(=O)[C@H](Cc3c[nH]c4ccc(F)cc34)NC(=O)[C@@H](C)NC(=O)[C@H](CCCCN)NC(=O)[C@@H](NC(C)=O)CCCCCc3ccc(cc3)C[C@@H](C(N)=O)NC(=O)[C@]3(C)CCCN3C2=O)cc1 [Compound 141] | – | –
7.00 to 9.96 | 7.00 to 10.00 | COCCOCCOCCOCCC(=O)NCCCC[C@@H]1NC(=O)CCSCc2cccc(c2)CSC[C@@H](C(N)=O)NC(=O)[C@]2(C)CCCN2C(=O)[C@H](Cc2ccc(O)cc2)NC(=O)[C@H](Cc2cnc[nH]2)NC(=O)[C@H](CC(=O)O)NC(=O)[C@H](Cc2c[nH]c3ccc(F)cc23)NC(=O)[C@H](Cc2c[nH]c3ccc(F)cc23)NC(=O)CNC1=O [Compound 484] ([Mpa]K(X51)G[Trp(5-F)][Trp(5-F)]DHY[αMeP]C-NH2; linker 1-10 via mXylylene) | – | –
